Source: patent US9868956B2, “Methods” (North Carolina State University, priority 2009, dated 2018)

Tests used:
[1] = target: T1, MbPyIRS/tRNACUA pair (Methanosarcina barkeri, UniProt Q6WRH6); assay: Expression of myoglobin-his6 (amber codon at position 4) in E. coli with the MbPyIRS/tRNACUA pair in the presence of the amino acid; format: cell-based; conditions: for yield of full-length myoglobin-his6 purified by Ni-NTA chromatography: E. coli with pBKPylS and pMyo4TAGPylT-his6, amino acid added to log phase cells (1 mM for 1 and 2); for incorporation by the MbPyIRS/tRNACUA pair (myoglobin-his6 purified by Ni-NTA chromatography): E. coli, 1 mM amino acid
T1 construct: expressed in transfected cells; host or cells: E. coli DH10B transformed with pBKPylS and pMyo4TAGPylT-his6
Procedure: To investigate whether 1 and 2 are substrates for the MbPyIRS/tRNACUA pair, we transformed E. coli with pBKPylS10 (which encodes MbPyIRS) and pMyo4TAGPylT-his610 (which encodes MbtRNACUA and a C-terminally hexahistidine tagged myoglobin gene with an amber codon at position 4). We added 1 or 2 (1 mM) to log phase cells and induced myoglobin-his6 expression. […] This may reflect the greater flexibility of the carbamate linkage. The yield of protein containing 2 was not improved by efforts to evolve the enzyme but was increased 5-fold by increasing the concentration of 2 7.5 fold (Supplementary FIG. 2A).
To investigate if the carbamate linkage provides a general route to the incorporation of other functional groups suitable for bioconjugation, we synthesized a simple aliphatic azide 3 (2 steps, 80% yield, Supplementary Scheme 1 and Supplementary Methods).
To express sperm whale myoglobin with an incorporated unnatural amino acid, we transformed E. coli DH10B cells with pBKPylS and pMyo4TAGPylT-his6. Cells were recovered in 1 mL of LB media for 1 h at 37° C., before incubation (16 h, 37° C., 250 r.p.m.) in 100 mL of LB containing kanamycin (50 μg/mL) and tetracycline (25 μg/mL). 20 mL of this overnight culture was used to inoculate 500 mL of LB supplemented with kanamycin (25 μg/mL), tetracycline (12 μg/mL) and 2 mM of 2. Cells were grown (37° C., 250 r.p.m.), and protein expression was induced at OD600-0.6, by addition of arabinose to a final concentration of 0.2%. After 3 h of induction, cells were harvested. Proteins were extracted by sonication at 4° C. The extract was clarified by centrifugation (20 min, 21,000 g, 4° C.), 300 μL of Ni^2+-NTA beads (Qiagen) were added to the extract, the mixture was incubated with agitation for 1 h at 4° C. Beads were collected by centrifugation (10 min, 1000 g). The beads were twice resuspended in 50 mL wash buffer and spun down at 1000 g. Subsequently, the beads were resuspended in 20 ml of wash buffer and transferred to a column. Protein was eluted in 1 ml of wash buffer supplemented with 200 mM imidazole and was then re-buffered to 20 mM ammonium bicarbonate using a sephadex G25 column. The purified proteins were analysed by 4-12% SDS-PAGE.
E. coli DH10B cells containing pBKPylS and pMyo4TAGPylT were inoculated into LB containing kanamycin (50 μg/mL) and tetracycline (25 μg/mL). The cells were incubated with shaking overnight at 37° C. 200 μL of cells were inoculated into each of 3 mL LB aliquots containing kanamycin (25 μg/mL) and tetracycline (12 μg/mL) and supplemented with different concentrations (7.5 mM, 5 mM, 2.5 mM, 1 mM, 0.75 mM, 0.5 mM, 0.25 mM, 0.1 mM, 0 mM) of 2. After 3 h of incubation with shaking at 37° C., protein expression was induced by the addition of 30 μL of 20% arabinose. After 12 h of expression, cell were collected by centrifugation (16000 g, 5 min) of 1 mL of cell suspension. The cells were resuspended in 100 μL of NuPAGE SDS Sample buffer supplemented with 10% f3-mercaptoethanol, heated at 80° C. for 10 min and centrifuged at 16000 g for 10 min. The crude cell lysate was analysed by 4-12% SDS-PAGE. Western blots were performed with antibodies against the hexahistidine tag (Invitrogen AntiHis monoclonal Mouse antibody).

[2] = Labeling of myoglobin-his6 bearing 2 with azido-probes via copper catalysed [3+2] cycloaddition; conditions: biotin azide 5 or By3 azide 6; CuSO4/ascorbate/ligand, pH 8.3
Procedure: In control experiments myoglobin-his6 bearing 3 at position 4 was treated identically. After 18 h, the purified labeling reactions were probed (FIG. 2A).
Quantification of the ratio of biotin or By3 to protein in purified samples provides independent confirmation of the labeling efficiency (Supplementary Methods).
Protein was re-buffered to 100 mM sodium phosphate buffer (pH 8.3) and concentrated to 2.5 mg/mL. 100 mM stock solutions of CuSO4, sulfonated bathophenanthroline sodium salt (GFS Chemicals) and sodium ascorbate in water were prepared, pre-mixed and incubated at room temperature for 5 min. Myoglobin containing 2 (13.5 nmol) was reacted for 15 minutes at 25° C., then 4° C. for 18 h with the biotin azide (Quanta Biodesign) 5 or the By3 azide (Primetech LTD) 6 (50 equivalents, 10 mM in DMSO) and CuSO4 (1 mM)/ascorbate (1 mM)/ligand (2 mM)^20. After 18 h, the solutions were diluted to 1 mL and loaded onto an Illustra™ NAP-10 column. Proteins were eluted into 1.5 mL of 20 mM NH4HCO3, dialyzed overnight with 20 mM NH4HCO3, loaded onto PD10 and eluted into 3.5 mL 20 mM NH4HCO3. […] Protein concentration of the labeled samples were measured by BCA Protein Assay (Thermo Scientific). The Biotin Quantitation Kit (Thermo Scientific) was used to quantify biotin-conjugated protein in labeled samples, and the By3 absorbance at 550 nm was used to quantify purified By3-labeled protein. […]

T1 sequence (Q6WRH6 whole entry): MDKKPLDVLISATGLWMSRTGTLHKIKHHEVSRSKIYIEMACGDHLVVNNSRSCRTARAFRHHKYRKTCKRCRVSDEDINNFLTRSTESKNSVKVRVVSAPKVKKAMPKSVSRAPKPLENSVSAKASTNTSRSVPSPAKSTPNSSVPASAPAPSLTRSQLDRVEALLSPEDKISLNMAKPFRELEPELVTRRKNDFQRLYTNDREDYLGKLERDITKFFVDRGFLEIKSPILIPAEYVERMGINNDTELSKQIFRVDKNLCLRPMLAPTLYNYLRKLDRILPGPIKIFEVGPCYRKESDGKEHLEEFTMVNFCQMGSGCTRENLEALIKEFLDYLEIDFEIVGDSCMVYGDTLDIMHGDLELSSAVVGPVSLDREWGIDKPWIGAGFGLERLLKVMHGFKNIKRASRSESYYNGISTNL

Row | SMILES | yield of full-length myoglobin-his6 purified by Ni-NTA chromatography [1] [mg/L] | incorporation by the MbPyIRS/tRNACUA pair (myoglobin-his6 purified by Ni-NTA chromatography) [1] | increase in yield of protein containing 2 ([1]; on increasing the concentration of 2 7.5 fold, Western blot against his-6 in cell lysates) [fold] | labeling of genetically encoded alkyne with azides that introduce biotin or fluorescent groups [2]
1 | O=C(O)C(F)(F)F.[N-]=[N+]=NCCOC(=O)NCCCC[C@H](N)C(=O)O [compound 3, (S)-2-amino-6-((2-azidoethoxy)carbonylamino)hexanoic acid TFA salt] | 3 | – | – | –
2 | C#CCCC(=O)NCCCC[C@H](N)C(=O)O.O=C(O)C(F)(F)F [compound 1, (S)-2-amino-6-pent-4-ynamidohexanoic acid TFA salt] | – | only background levels | – | –
3 | C#CCOC(=O)NCCCC[C@H](N)C(=O)O.O=C(O)C(F)(F)F [compound 2, (S)-2-amino-6-((prop-2-ynyloxy)carbonylamino)hexanoic acid TFA salt] | 2 | incorporated | 5 | specifically and efficiently labeled
